Results on 10 compounds are retold here after article PMC5520047, “Prioritizing multiple therapeutic targets in parallel using automated DNA-encoded library screening” (Nature Communications, 2017).

In brackets after ≈: the same amount, converted by molar mass. Where two headings read alike, the source gives them in different places. Where only a bound is given, the exact number is not on record here.

In assay [1] the test system is A. baumannii BM4652 efflux mutant, pRK415 and pRK415-UppS. Briefly: microbe, parasite or virus in culture. Type of assay: cell-based, Acinetobacter baumannii. The note with it: 30 μg/ml polymyxin B nonapeptide; for MIC: Acinetobacter baumannii; for Fold MIC increase: pRK415-UppS overexpressing strain relative to parent strain.
Assay [2] has as its system E. coli TOP10 ∆TolC, pHN678’ and pHN678’-LolA antisense. The experiment in a line: MoA study: MIC in lolA antisense expressor. Type of assay: cell-based, Escherichia coli. The note with it: for MIC: Escherichia coli; for Fold MIC decrease: lolA antisense plasmid compared to vector alone.
Assay [3] deals with Staphylococcus aureus RN4220. Briefly: MIC broth microdilution. Type of assay: cell-based. The note with it: S. aureus RN4220 Gram-positive. Here is the method: (§1) 409 remaining NADPH to convert resazurin into the fluorescent resorufin14. The assay buffer containing
(§2) 410 81.4 mM Hepes pH 7.8, 300 mM KCl, 0.4 mg/mL BSA was used to make the enzyme addition containing
(§3) 411 1.2 μg/mL Mtb DHFR and 50 μM NADPH. This was added in equal volume (5 μL) to a substrate solution
(§4) 412 composed of 240 µM DHF in H2O and incubated for 50 min. Developing solution was prepared with
(§5) 413 0.045 mM Resazurin and 0.6 U/ml Diaphorase in 200 mM sodium phosphate buffer pH 7.8 and 5 μL was
(§6) 414 added. The experiments were conducted in black 384-well plates (Greiner Catalog # 784076) and all
(§7) 415 liquid additions were conducted using a Multidrop combi (Thermo Scientific). The plate was read on a
(§8) 416 ViewLux following a 10 minute delay. Resorufin light production was measured using appropriate
(§9) 417 Viewlux filters: Ex: 525 / 20 Pol (BODIPY TMR FP) Em: 598 / 25 (BODIPY TMR) (B04). Assay plates were
(§10) 418 pre-dispensed with 100 nL DMSO or with 100 nL compounds dissolved in neat DMSO using an Echo®
(§11) 419 liquid handler (Labcyte Inc.) where all wells contained compound samples, except wells in columns 6
420 and 18 that contained DMSO control. Column 6 represented 100% Mtb DHFR activity in the absence of […]
424 were calculated using the n-1 method. […]
(§12) 440 saline). […] Fluorescence was measured (Spectramax M5 […]
(§13) 444 Minimum inhibitory concentrations (MICs) of compounds were determined using broth microdilution […]

The subject of assay [4] is A. baumannii BM4652 strains. Briefly: Potentiation of teicoplanin MIC by LpxA compound 4. The format is cell-based, Acinetobacter baumannii.
In assay [5] the test system is A. baumannii BM4652, BM4652/pRK415, BM4652/pRK415-LpxA. The experiment in a line: MoA study: MIC and MGIC in LpxA overexpressor. The format is cell-based. As to conditions: Acinetobacter baumannii.
In assay [6] the test system is Acinetobacter baumannii BM4652 ΔadeABC ΔadeIJK (efflux mutant). The experiment in a line: MIC broth microdilution. The format is cell-based. (In general: Dilution methods test growth across graded concentrations, often in twofold steps.)
The test system of assay [7] is Escherichia coli 7623 ΔtolC. Briefly: MIC broth microdilution. Type of assay: cell-based.
The test system of assay [8] is Pseudomonas aeruginosa PA0322 Δ(mexAB-oprM) Δ(mexCD-oprJ) Δ(mexEF-oprN). The experiment in a line: MIC broth microdilution. Type of assay: cell-based.
The test system of assay [9] is Klebsiella pneumoniae 1161486a ΔtolC. The experiment in a line: MIC broth microdilution. Type of assay: cell-based.
Assay [10] has as its system Acinetobacter baumannii ATCC 19606-1 ΔLpxC. Briefly: MIC broth microdilution. Type of assay: cell-based. As to conditions: ATCC19606.
Assay [11] relates to H. influenzae ΔtolC. The experiment in a line: MIC broth microdilution. The note with it: Haemophilus influenzae. Type of assay: cell-based.
Assay [12] concerns M. tuberculosis H37Rv. The experiment in a line: MIC determination against M. tuberculosis H37Rv (resazurin). The format is cell-based. The note with it: Mycobacterium tuberculosis. The protocol:
as §1, §2, §3, §4, §5, §6, §7, §8, §9, §10, §11
420 and 18 that contained DMSO control. Column 6 represented 100% Mtb DHFR activity in the absence of
421 GSK compounds. […] Compounds were
422 tested at 1% DMSO in 11 point dose response with a 1:3 dilution and fit to a standard 4 parameter fit to
423 calculate an IC50 value and are reported as the average of two replicates. Standard deviation values
424 were calculated using the n-1 method.
428 Minimum Inhibitory Concentration Assays:
429 MIC determination against M. tuberculosis H37Rv:
430 The measurement of the Minimum Inhibitory Concentration (MIC) against M. tuberculosis H37Rv for
431 each tested compound was performed in 96-well flat-bottom, polystyrene microtiter plates in a final
432 volume of 100 μl. Ten two-fold drug dilutions in neat DMSO starting at 50 mM were performed. Drug […]
as §12, §13
For orientation: Alamar Blue is a resazurin reagent that responds to reducing activity.

The target of assay [13] is M. tuberculosis Dihydrofolate reductase (DHFR) (Mycobacterium tuberculosis, UniProt P9WNX1). The experiment in a line: biochemical.
[14] abbreviates: A. baumannii BM4652 efflux mutant + pRK415-UppS.
[15] abbreviates: A. baumannii BM4652 efflux mutant + pRK415.
Setting [16] is: A. baumannii BM4652 efflux mutant, N/A (no plasmid).
[17] abbreviates: E. coli TOP10 ∆TolC + pHN678’-LolA antisense.
Setting [18] is: A. baumannii BM652 efflux strain.
The mark [19] stands for this setting: A. baumannii BM4652 ΔadeABC ΔadeIJK efflux mutant.
[20] abbreviates: M. tuberculosis DHFR, average of two replicates with s.d., read-out: IC50.

Chain of M. tuberculosis Dihydrofolate reductase (DHFR) (P9WNX1 whole entry): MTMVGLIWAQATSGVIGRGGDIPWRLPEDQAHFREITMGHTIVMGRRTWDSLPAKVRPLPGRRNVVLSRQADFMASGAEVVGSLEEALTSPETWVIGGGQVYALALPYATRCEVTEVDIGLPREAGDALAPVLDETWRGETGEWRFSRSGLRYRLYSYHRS

As to `CC[C@H]1OC(=O)[C@H](C)[C@@H](O[C@H]2C[C@@](C)(OC)[C@@H](O)[C@H](C)O2)[C@H](C)[C@@H](O[C@@H]2O[C@H](C)C[C@H](N(C)C)[C@H]2O)[C@](C)(O)C[C@@H](C)CN(C)[C@H](C)[C@@H](O)[C@]1(C)O` [Azithromycin], the MIC was 0.031 µg/mL in assay [1] (setting [14]); 0.031 µg/mL in assay [1] (setting [15]); 0.031 µg/mL in assay [1] (setting [16]); 0.0156 µg/mL in assay [2] (E. coli TOP10 ∆TolC + pHN678’); 0.0039 µg/mL in [2] (setting [17]). Further, the “Fold MIC increase” value in assay [1] is recorded as 1 fold; in assay [1] (listed as azithromycin) it was “unchanged”. The “Fold MIC decrease” value in assay [2] was determined as 4 fold.

With `CC(C)(O/N=C(\C(=O)N[C@@H]1C(=O)N2C(C(=O)[O-])=C(C[n+]3ccccc3)CS[C@H]12)c1csc(N)n1)C(=O)O` [Ceftazidime], the MIC in assay [1] (setting [14]), in [1] (setting [15]) and in [1] (setting [16]) was 0.5 µg/mL in each case. Further, the “Fold MIC increase” value is on record as 1 fold in assay [1] and “unchanged” in assay [1] (listed as ceftazidime).

With `O=C(O)c1cn(C2CC2)c2cc(N3CCNCC3)c(F)cc2c1=O` [Ciprofloxacin], the MIC in assay [2] (E. coli TOP10 ∆TolC + pHN678’) and in assay [2] (setting [17]) was 0.0078 µg/mL in each case.

For `Cc1cc(C)c(NC(=O)NC(CCC(=O)N2CCN(C)CC2)C(=O)Nc2cccc3c2CCCC3)c(C)c1` (stereo not shown) [Compound 4], the MIC in [3] was more than 128 µg/mL; in assay [5] (A. baumannii BM4652 (efflux-)), more than 128 µg/mL; in [5] (A. baumannii BM4652/pRK415 (efflux-)), more than 128 µg/mL; in assay [5] (A. baumannii BM4652/pRK415-LpxA (efflux-)), more than 128 µg/mL; in assay [5] (read-out: MGIC (minimum growth inhibition concentration), A. baumannii BM4652 (efflux-)), 8 µg/mL (≈ 15.4 µM); in assay [5] (read-out: MGIC (minimum growth inhibition concentration), A. baumannii BM4652/pRK415 (efflux-)), 8 µg/mL (≈ 15.4 µM). For the same compound, the MIC in assay [5] (read-out: MGIC (minimum growth inhibition concentration), A. baumannii BM4652/pRK415-LpxA (efflux-)) was more than 128 µg/mL; in [6] (setting [18]), more than 64 µg/mL; in assay [6] (setting [19]), more than 128 µg/mL; in assay [7], more than 128 µg/mL; in assay [8] it was more than 128 µg/mL; in assay [9], more than 128 µg/mL. Moreover, the MIC in assay [10] was more than 128 µg/mL. The “concentration of compound 4 required to completely potentiate teicoplanin” value in assay [4] (A. baumannii BM4652) was 32 µg/mL; in assay [4] (A. baumannii BM4652 with LpxA overexpressor clone) it was more than 128 µg/mL.

Regarding `CCNc1cc(N2CCc3cc(NS(C)(=O)=O)ccc3C2C)nc(-c2cc(F)cc(C#N)c2)n1` (stereo not shown) [Compound 6], the MIC in [3] was more than 128 µg/mL; in assay [11], 2 µg/mL (≈ 4.16 µM); in [6] (setting [18]), more than 128 µg/mL; in [6] (setting [19]), more than 128 µg/mL; in [7], more than 128 µg/mL; in assay [8], more than 128 µg/mL. For the same compound, the MIC in [9] is more than 128 µg/mL; in assay [10], 32 µg/mL (≈ 66.6 µM); in [2] (E. coli TOP10 ∆TolC + pHN678’), 128 µg/mL; in assay [2] (setting [17]), 4 µg/mL. Besides, in [2], the “Fold MIC decrease” value was 32 fold.

In [12], `Cc1ccc(S(=O)(=O)NCCN(CCC(N)=O)C(=O)c2cc(O)cc(NC(=O)CN3C(=O)C(C)Oc4ccccc43)c2)cc1` (stereo not shown) [Compound 7] displayed an MIC of 80 µM (≈ 49.9 µg/mL). Further, the IC50 in [13] (setting [20]) turned out to be 492 ± 4 nM.

Turning to `COc1ccc(OC)c(Cc2cnc3nc(N)nc(N)c3c2C)c1` [Compound 8], in assay [12], the MIC amounted to 2.5 µM (≈ 0.813 µg/mL). In [13], this compound gave an IC50 of 610 ± 420 nM.

In the case of `Cc1cccc(NC(=O)Cc2c(C(=O)O)[nH]c3ccccc23)n1` [Compound 9], in [12], the MIC amounted to 80 µM (≈ 24.7 µg/mL). Further, the IC50 in assay [13] (setting [20]) came to 4900 ± 2200 nM.

Regarding `C[C@@H](O)[C@H]1C(=O)N2C(C(=O)O)=C(SCCN=CN)C[C@H]12` [Imipenem], the MIC in assay [2] (E. coli TOP10 ∆TolC + pHN678’) and in [2] (setting [17]) was 1 µg/mL in each case.

Take teicoplanin: the MIC of teicoplanin in assay [4] (A. baumannii BM4652/pRK415-LpxA, compound 4 at 0 µg/ml) was more than 64 µg/mL; in assay [4] (A. baumannii BM4652/pRK415-LpxA, compound 4 at 4 µg/ml), more than 64 µg/mL; in [4] (A. baumannii BM4652/pRK415-LpxA, compound 4 at 8 µg/ml) it was more than 64 µg/mL; in [4] (A. baumannii BM4652/pRK415-LpxA, compound 4 at 16 µg/ml), more than 64 µg/mL; in assay [4] (A. baumannii BM4652/pRK415-LpxA, compound 4 at 32 µg/ml), more than 64 µg/mL; in assay [4] (A. baumannii BM4652/pRK415-LpxA, compound 4 at 64 µg/ml) it was more than 64 µg/mL. Moreover, the MIC of teicoplanin in assay [4] (A. baumannii BM4652/pRK415-LpxA, compound 4 at 128 µg/ml) is more than 64 µg/mL; in assay [4] (A. baumannii BM4652/pRK415, compound 4 at 0 µg/ml), more than 64 µg/mL; in assay [4] (A. baumannii BM4652/pRK415, compound 4 at 4 µg/ml), more than 64 µg/mL; in assay [4] (A. baumannii BM4652/pRK415, compound 4 at 8 µg/ml), more than 64 µg/mL; in assay [4] (A. baumannii BM4652/pRK415, compound 4 at 16 µg/ml), more than 64 µg/mL; in assay [4] (A. baumannii BM4652/pRK415, compound 4 at 32 µg/ml), 0.5 µg/mL. For the same compound, the MIC of teicoplanin is 0.5 µg/mL in assay [4] (A. baumannii BM4652/pRK415, compound 4 at 64 µg/ml); 0.5 µg/mL in assay [4] (A. baumannii BM4652/pRK415, compound 4 at 128 µg/ml); more than 64 µg/mL in assay [4] (A. baumannii BM4652, compound 4 at 0 µg/ml); more than 64 µg/mL in assay [4] (A. baumannii BM4652, compound 4 at 4 µg/ml); more than 64 µg/mL in assay [4] (A. baumannii BM4652, compound 4 at 8 µg/ml); 16 µg/mL in assay [4] (A. baumannii BM4652, compound 4 at 16 µg/ml). Also, the MIC of teicoplanin was found to be 0.5 µg/mL in [4] (A. baumannii BM4652, compound 4 at 32 µg/ml); 0.5 µg/mL in assay [4] (A. baumannii BM4652, compound 4 at 64 µg/ml); 0.5 µg/mL in assay [4] (A. baumannii BM4652, compound 4 at 128 µg/ml).

What is called IC50 is the concentration that inhibits the measured activity by half.
